Measured values taken from PubChem BioAssay (NCI).
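Dose response: 5 concentrations. Exposure: 48 h. Format: 96-well plates. Endpoint: linear interpolation; highest concentration if not reached. TGI: total growth inhibition.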

Assays:
Assay in all cases: inhibition of tumour cell growth, NCI panel, 48 h
786-0 renal = system: 786-0 renal
A498 renal = system: A498 renal
A549 NSCLC = system: A549 NSCLC
ACHN renal = system: ACHN renal
CAKI-1 renal = system: CAKI-1 renal
CCRF-CEM leukemia = system: CCRF-CEM leukemia
COLO 205 colon = system: COLO 205 colon
DLD-1 colon = system: DLD-1 colon
DMS 114 small cell lung = system: DMS 114 small cell lung
DMS 273 small cell lung = system: DMS 273 small cell lung
HCC-2998 colon = system: HCC-2998 colon
HCT-116 colon = system: HCT-116 colon
HCT-15 colon = system: HCT-15 colon
HOP-18 NSCLC = system: HOP-18 NSCLC
HOP-92 NSCLC = system: HOP-92 NSCLC
HT29 colon = system: HT29 colon
IGROV1 ovarian = system: IGROV1 ovarian
K-562 leukemia = system: K-562 leukemia
KM20L2 colon = system: KM20L2 colon
LOX IMVI melanoma = system: LOX IMVI melanoma
LXFL 529 NSCLC = system: LXFL 529 NSCLC
M14 melanoma = system: M14 melanoma
M19-MEL melanoma = system: M19-MEL melanoma
MALME-3M melanoma = system: MALME-3M melanoma
MOLT-4 leukemia = system: MOLT-4 leukemia
NCI-H226 lung = system: NCI-H226 lung
NCI-H23 lung = system: NCI-H23 lung
NCI-H460 lung = system: NCI-H460 lung
NCI-H522 lung = system: NCI-H522 lung
OVCAR-3 ovarian = system: OVCAR-3 ovarian
OVCAR-4 ovarian = system: OVCAR-4 ovarian
OVCAR-5 ovarian = system: OVCAR-5 ovarian
OVCAR-8 ovarian = system: OVCAR-8 ovarian
RPMI-8226 leukemia = system: RPMI-8226 leukemia
RXF 393 renal = system: RXF 393 renal
SF-268 CNS = system: SF-268 CNS
SK-MEL-2 melanoma = system: SK-MEL-2 melanoma
SK-MEL-28 melanoma = system: SK-MEL-28 melanoma
SK-OV-3 ovarian = system: SK-OV-3 ovarian
SN12C renal = system: SN12C renal
SNB-75 CNS = system: SNB-75 CNS
SNB-78 CNS = system: SNB-78 CNS
SW-620 colon = system: SW-620 colon
TK-10 renal = system: TK-10 renal
U251 CNS = system: U251 CNS
UACC-257 melanoma = system: UACC-257 melanoma
UACC-62 melanoma = system: UACC-62 melanoma
UO-31 renal = system: UO-31 renal
EKVX NSCLC = system: EKVX NSCLC
HL-60(TB) leukemia = system: HL-60(TB) leukemia
HOP-62 NSCLC = system: HOP-62 NSCLC
KM12 colon = system: KM12 colon
SF-295 CNS = system: SF-295 CNS
SF-539 CNS = system: SF-539 CNS
SK-MEL-5 melanoma = system: SK-MEL-5 melanoma
SNB-19 CNS = system: SNB-19 CNS
SR leukemia = system: SR leukemia

For CCOC(=O)C1=C(C)N(NC(=O)Nc2ccccc2)C2(N)N(NC(=O)Nc3ccccc3)C(C)=C(C(=O)OCC)C12C#N (stereo not given), the TGI (786-0 renal) was 32.4 µM, the TGI (A498 renal) was 45 µM and the TGI (A549 NSCLC) was over 100 µM. The TGI (ACHN renal) was 51.4 µM, the TGI (CAKI-1 renal) was 40.1 µM and the TGI (CCRF-CEM leukemia) was 71.9 µM. The TGI (COLO 205 colon) was 32.6 µM, the TGI (DLD-1 colon) was 34.1 µM and the TGI (DMS 114 small cell lung) was 32.9 µM. For the same compound, the TGI (DMS 273 small cell lung) was 31.3 µM, the TGI (HCC-2998 colon) was 33.9 µM and the TGI (HCT-116 colon) was 31.2 µM. It also gave a TGI (HCT-15 colon) of 37.1 µM, a TGI (HOP-18 NSCLC) of 34.3 µM and a TGI (HOP-92 NSCLC) of 39.4 µM. For the same compound, the TGI (HT29 colon) was 38.1 µM, the TGI (IGROV1 ovarian) was 36.6 µM and the TGI (K-562 leukemia) was 48.2 µM. For the same compound, the TGI (KM20L2 colon) was 33.4 µM, the TGI (LOX IMVI melanoma) was 34 µM and the TGI (LXFL 529 NSCLC) was 32.6 µM. It also gave a TGI (M14 melanoma) of 34.6 µM, a TGI (M19-MEL melanoma) of 31.6 µM and a TGI (MALME-3M melanoma) of 30.6 µM. It also gave a TGI (MOLT-4 leukemia) of 56.8 µM, a TGI (NCI-H226 lung) of 36.1 µM and a TGI (NCI-H23 lung) of 43.9 µM. It also gave a TGI (NCI-H460 lung) of 33.1 µM, a TGI (NCI-H522 lung) of 33.1 µM and a TGI (OVCAR-3 ovarian) of 32.2 µM. It also gave a TGI (OVCAR-4 ovarian) of 31.5 µM, a TGI (OVCAR-5 ovarian) of 32.4 µM and a TGI (OVCAR-8 ovarian) of 33.4 µM. For the same compound, the TGI (RPMI-8226 leukemia) was 50.5 µM, the TGI (RXF 393 renal) was 27.7 µM and the TGI (SF-268 CNS) was 42.8 µM. For the same compound, the TGI (SK-MEL-2 melanoma) was 30.2 µM, the TGI (SK-MEL-28 melanoma) was 32.1 µM and the TGI (SK-OV-3 ovarian) was 52.1 µM. It also gave a TGI (SN12C renal) of 33 µM, a TGI (SNB-75 CNS) of 36.6 µM and a TGI (SNB-78 CNS) of 37.6 µM. The TGI (SW-620 colon) was 36.2 µM, the TGI (TK-10 renal) was 49.3 µM and the TGI (U251 CNS) was 32.3 µM. For the same compound, the TGI (UACC-257 melanoma) was 38.5 µM, the TGI (UACC-62 melanoma) was 32.2 µM and the TGI (UO-31 renal) was over 100 µM.

In the case of O=C1OCc2nc3c(c(-c4ccccc4C(F)(F)F)c21)C(=O)OC3, the TGI (786-0 renal) is reported as over 100 µM, the TGI (A498 renal) is reported as over 100 µM and the TGI (A549 NSCLC) is reported as over 100 µM. For the same compound, the TGI (ACHN renal) was over 100 µM, the TGI (CCRF-CEM leukemia) was over 100 µM and the TGI (COLO 205 colon) was over 100 µM. It also gave a TGI (DLD-1 colon) of over 100 µM, a TGI (DMS 114 small cell lung) of over 100 µM and a TGI (DMS 273 small cell lung) of over 100 µM. For the same compound, the TGI (EKVX NSCLC) was over 100 µM, the TGI (HCC-2998 colon) was over 100 µM and the TGI (HCT-116 colon) was over 100 µM. For the same compound, the TGI (HCT-15 colon) was over 100 µM, the TGI (HL-60(TB) leukemia) was over 100 µM and the TGI (HOP-18 NSCLC) was over 100 µM. For the same compound, the TGI (HOP-62 NSCLC) was over 100 µM, the TGI (HOP-92 NSCLC) was over 100 µM and the TGI (IGROV1 ovarian) was over 100 µM. For the same compound, the TGI (K-562 leukemia) was over 100 µM, the TGI (KM12 colon) was over 100 µM and the TGI (KM20L2 colon) was over 100 µM. It also gave a TGI (LOX IMVI melanoma) of over 100 µM, a TGI (LXFL 529 NSCLC) of over 100 µM and a TGI (M14 melanoma) of over 100 µM. It also gave a TGI (M19-MEL melanoma) of over 100 µM, a TGI (MALME-3M melanoma) of over 100 µM and a TGI (MOLT-4 leukemia) of over 100 µM. The TGI (NCI-H23 lung) was over 100 µM, the TGI (NCI-H460 lung) was over 100 µM and the TGI (NCI-H522 lung) was over 100 µM. For the same compound, the TGI (OVCAR-3 ovarian) was over 100 µM, the TGI (OVCAR-5 ovarian) was over 100 µM and the TGI (OVCAR-8 ovarian) was over 100 µM. It also gave a TGI (RPMI-8226 leukemia) of over 100 µM, a TGI (RXF 393 renal) of over 100 µM and a TGI (SF-268 CNS) of over 100 µM. It also gave a TGI (SF-295 CNS) of over 100 µM, a TGI (SF-539 CNS) of over 100 µM and a TGI (SK-MEL-2 melanoma) of over 100 µM. It also gave a TGI (SK-MEL-28 melanoma) of over 100 µM, a TGI (SK-MEL-5 melanoma) of over 100 µM and a TGI (SK-OV-3 ovarian) of over 100 µM. For the same compound, the TGI (SN12C renal) was over 100 µM, the TGI (SNB-19 CNS) was over 100 µM and the TGI (SNB-78 CNS) was over 100 µM. The TGI (SR leukemia) was over 100 µM, the TGI (SW-620 colon) was over 100 µM and the TGI (TK-10 renal) was over 100 µM. It also gave a TGI (U251 CNS) of over 100 µM, a TGI (UACC-257 melanoma) of over 100 µM and a TGI (UACC-62 melanoma) of over 100 µM. It also gave a TGI (UO-31 renal) of over 100 µM.
